Key:
[1] = target: T1, Acyl-CoA:cholesterol transferase (ACAT) (Rattus norvegicus, UniProt Q7TQM4); assay: Acyl-CoA:cholesterol transferase (ACAT) inhibitory activity (labeled cholesterol ester production, small intestinal mucosal microsome fraction); format: biochemical, male sprague-Dawley rat; settings: rat small intestinal mucosal microsomes; for inhibition at 1 µM: 10^-6 M test compound, read-out: ACAT inhibition rate (%) (labeled cholesterol ester production inhibiting rate); for IC50: plotted at a plurality of concentration levels, read-out: IC50 (50% inhibitory concentration, ACAT)
T1 construct: small intestinal mucosal microsome fraction of a 6-week-old male sprague-Dawley rat; from tissue; host or cells: small intestinal mucosal microsome fraction, 6-week-old male Sprague-Dawley rat
T1 sequence (Q7TQM4 1-524): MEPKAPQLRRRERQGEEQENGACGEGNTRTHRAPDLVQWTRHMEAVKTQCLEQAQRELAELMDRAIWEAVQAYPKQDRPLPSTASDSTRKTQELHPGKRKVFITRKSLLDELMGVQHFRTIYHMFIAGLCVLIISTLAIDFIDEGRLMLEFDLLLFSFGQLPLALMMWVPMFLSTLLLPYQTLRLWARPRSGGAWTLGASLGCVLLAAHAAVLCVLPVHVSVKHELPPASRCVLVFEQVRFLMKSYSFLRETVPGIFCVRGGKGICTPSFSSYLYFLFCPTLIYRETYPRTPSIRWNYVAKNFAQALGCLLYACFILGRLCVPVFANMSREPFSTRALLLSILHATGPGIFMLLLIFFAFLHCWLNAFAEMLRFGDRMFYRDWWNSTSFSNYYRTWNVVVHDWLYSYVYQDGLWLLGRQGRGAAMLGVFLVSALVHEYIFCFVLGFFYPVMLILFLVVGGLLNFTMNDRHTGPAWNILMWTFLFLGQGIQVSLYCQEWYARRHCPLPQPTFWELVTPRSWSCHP
Procedure: Samples of ACAT enzyme were prepared from the small intestinal mucosal microsome fraction of a 6-week-old male sprague-Dawley rat fasted for 20 hours in accordance with the procedure described by Heider et al, Journal of Lipid Research 24, 1127 (1982).
ACAT activity was determined in accordance with the method of Helgerud et al., Journal of Lipid Research 22, 271 (1981), by measuring the amount of labeled cholesterol ester produced from [1-^14 C]oloyl-CoA and endogenous cholesterol.
The 50% inhibitory concentration (IC50) determined by plotting at a plurality of concentration levels is also shown.

plasma cholesterol = assay: Plasma cholesterol lowering activity in cholesterol-fed rats; format: in vivo, Male Sprague-Dawley rats; settings: 1% cholesterol diet containing 0.0003% test compound, 7 days; ingested about 0.23-0.24 mg/kg/day; mean ± S.D.; * p < 0.05 (t-test) against control group (181.8 ± 60.4)
Procedure: Male Sprague-Dawley rats aged 7 weeks were divided into groups based on body weight and put on a 1% cholesterol diet (the rat diet supplemented with 0.5% cholic acid and 5% olive oil) containing 0.0003% of the test compound for 7 days. The blood was sampled from surfeited rats between 8:30 and 10:00 a.m. and the plasma cholesterol concentration was enzymatically determined. The amount of the compound ingested was calculated from the food consumption.

inhibition at 1 µM [1] [%]	IC50 [1] [nM]	Structure (SMILES)	Plasma cholesterol (plasma cholesterol) [mg/dL]
89.9		COc1ccc(C=CC(=O)Nc2c(-c3ccccc3C)c3cc4c(cc3oc2=O)CCC4)cc1OC [Example 13, 3-(3,4-dimethoxycinnamoylamino) -4-(2-methylphenyl)-7,8-dihydrocyclopenta[g] 1benzopyran-2(6H)-one]	
94.4		COc1cc(NC(=O)Nc2c(-c3ccccc3C)c3cc4c(cc3oc2=O)CCC4)cc(OC)c1O [Example 16, N-(4-hydroxy-3,5-dimethoxyphenyl)-N'-[4-(2-methylphenyl)-2-oxo-2,6,7,8-tetrahydrocyclopenta [g] [1]benzopyran-3-yl]urea]	
89.6		Cc1ccccc1-c1c(NC(=O)Cc2cc(C(C)(C)C)c(O)c(C(C)(C)C)c2)c(=O)oc2cc3c(cc12)CCC3 [Example 15, 3-(3,5-di-tert-butyl-4-hydroxyphenylacetylamino) -4-(2-methylphenyl)-7,8-dihydrocyclopenta-[g] [1]benzopyran-2(6H)-one]	
86.9		Cc1ccccc1-c1c(NC(=O)C=Cc2ccc(O)c(O)c2)c(=O)oc2cc3c(cc12)CCC3 [Example 18, 3-(3,4-dihydroxycinnamoylamino)-4-(2-methylphenyl)-7,8-dihydrocyclopenta [g] [1]benzopyran-2(6H)-one]	
97.6		Cc1ccccc1-c1c(NC(=O)Nc2cc(C)c(O)c(C)c2)c(=O)oc2cc3c(cc12)CCC3 [Example 17, N-(4-hydroxy-3,5-dimethylphenyl)-N'-[4-(2-methylphenyl)-2-oxo-2,6,7,8-tetrahydrocyclopenta-[g] [1]benzopyran-3-yl]urea]	
98.2		Cc1ccccc1-c1c(NC(=O)Nc2ccc(F)cc2F)c(=O)n(C)c2cc3c(cc12)CCC3 [Example 19, N-(2,4-difluorophenyl)-N'-[1-methyl-4-(2-methylphenyl)-2-oxo-l,2,7,8-tetrahydro-6H-cyclopenta-[g]quinolin-3-yl]urea]	

The next lines start with the compound.

Structure (SMILES)	inhibition at 1 µM [1] [%]	IC50 [1] [nM]	Plasma cholesterol (plasma cholesterol) [mg/dL]
Cc1ccccc1-c1c(NC(=O)Nc2ccc(F)cc2F)c(=O)oc2cc3c(cc12)CCCC3 [Example 10, N-(2,4-difluorophenyl)-N'-[4-(2-methylphenyl)-6,7,8,9-tetrahydro-2-oxo-2H-naphtho[2,3-b]pyran-3-yl]urea]	98.7		
O=C(Cc1ccc(F)cc1F)Nc1cnc2cc3c(cc2c1-c1ccccc1Cl)CCC3 [Example 4, 4-(2-chlorophenyl)-3-(2,4-difluorophenylacetylamino)-7,8-dihydro-6H-cyclopenta(g)quinoline]	91.5		
Cc1ccccc1-c1c(NC(=O)Nc2ccc(N(C)C)cc2)c(=O)oc2cc3c(cc12)CCC3 [Example 9, N-(4-dimethylaminophenyl)-N'-[4-(2-methylphenyl)-2-oxo-2,6,7,8-tetrahydrocyclopenta[g] [1]benzo-pyran-3-yl]urea]	94.6		
CC(=O)Oc1c(C)cc(NC(=O)Nc2c(-c3ccccc3C)c3cc4c(cc3n(C)c2=O)CCC4)cc1C [Example 12, N-(4-acetoxy-3,5-dimethylphenyl)-N'-[1-methyl-4-(2-methylphenyl)-2-oxo-l,2,7,8-tetrahydro-6H-cyclopenta[g]quinolin-3-yl]urea]	91.1		
COc1nc2cc3c(cc2c(-c2ccccc2Cl)c1NC(=O)Nc1cc(C)c(OC(C)=O)c(C)c1)CCC3 [Example 11, N-(4-acetoxy-3,5-dimethylphenyl)-N'-[4-(2-chlorophenyl)-7,8-dihydro-2-methoxy-6H-cyclopenta[g]-quinolin-3-yl]urea]	75.6		
Cc1ccccc1-c1c(NC(=O)Nc2ccc(F)cc2F)cnc2cc3c(cc12)CCC3 [Example 2, N-[7,8-Dihydro-4-(2-methylphenyl)-6H-cyclopenta[g]-quinolin-3-yl]-N'-(2,4-difluorophenyl)urea]	99.2	3.9	78.5 ± 10.2
CC(C)(C)c1cc(-c2c(NC(=O)Nc3ccc(F)cc3F)c(=O)oc3cc4c(cc23)CCC4)cc(C(C)(C)C)c1O [Example 8, N-[4-(3,5-di-tert-butyl-4-hydroxyphenyl)-2-oxo-2,6,7,8-tetrahydrocyclopenta[g] [1]benzopyran-3-yl]-N'-(2,4-difluorophenyl]urea]	99		
Cc1ccccc1-c1c(NC(=O)Nc2ccc(F)cc2F)c(=O)oc2cc3c(cc12)CCC3 [Example 3, N-(2,4-difluorophenyl)-N'-[4-(2-methylphenyl)-2-oxo-2,6,7,8-tetrahydrocyclopenta[g][1]-benzopyran-3-yl]urea]	99.5		78.1 ± 12.6
O=C(Nc1ccc(F)cc1F)Nc1cnc2cc3c(cc2c1-c1ccccc1Cl)CCC3 [Example 1, N-[4-(2-chlorophenyl)-7,8-dihydro-6H-cyclopenta[g]quinolin-3-yl]-N'-(2,4-difluorophenyl)urea]	99.3	3.8	80.8 ± 18.6

Source: patent US5418239A, “Tricyclic heterocyclic compounds, their production and use” (Takeda Chemical Industries, Ltd., priority 1990, dated 1995)
